According to patent US20240307345A1, “R-MDMA and S-MDMA TO ASSIST PSYCHOTHERAPY” (Universitatsspital Basel, priority 2022, published 2024):
“Also recorded” adds a separate entry of the source.

Legend:
healthy subjects [1] = assay: Clinical cross-over study, overall comparison of the substances; type: in vivo, human; details: conclusion over the doses tested
Description: (§1) Study design: The present study compares the acute subjective, physiological and endocrine effects of S-MDMA (125 mg), R-MDMA (125 and 250 mg), MDMA (125 mg) using a placebo-controlled double-blind 5-period cross-over design in 24 healthy subjects. Conditions are 1.) R-MDMA 125 mg, 2). R-MDMA 250 mg, 3) S-MDMA 125 mg, 4) MDMA 125 mg, 5) placebo. Treatment order is counterbalanced. Washout periods between substance administrations are at least 10 days. Study days include a 10-hour study session with a subsequent single measurement (short visit) the next morning (24 hours after drug administration).

healthy subjects [2] = assay: Acute subjective effects on the Visual Analog Scale (VAS); type: in vivo, human; details: 125 mg; compared with both R-MDMA doses and placebo
Description: as §1
Study procedures: The study takes place at the University Hospital Basel. Each of the test sessions last from 8:00 until 18:00 with a short visit the next morning (24 hours after application). An indwelling intravenous catheter is inserted into a subcutaneous vein of the forearm and baseline psychometric measures are obtained. Administration of the substance is at 9:00. Outcome measures (see below) are repeatedly assessed during the study session. Subjects are under continuous medical supervision until any alterations of consciousness have completely subsided and they leave the research facility.
Psychometric assessments: Visual Analog Scale (VAS): VASs is repeatedly used to assess subjective alterations in consciousness over time. Single scales are presented as 100 mm horizontal lines marked with “not at all” on the left and “extremely” on the right. The following VAS items are used: “any drug effect”, “good drug effect”, “bad drug effect”, “stimulated”, “liking”, “happy”, “content”, “talkative”, “open”, “trust”, “feeling close to others”, “anxiety”, “alteration of vision”, “alterations of hearing”, “sounds seem to influence what I see”, “alteration of sense of time”, “the boundaries between myself and my surroundings seem to blur”, “want to be with other people”, and “want to be alone”. Scales are administered before and repeatedly after substance administration and take approximately 2 minutes to fill out. The maximal ratings (Emax, 0-100) and areas under the effect-time curve (AUEC) are defined for each VAS and Emax and AUEC values compared between treatments using analysis of variance. 5-Dimensions of Altered States of Consciousness (5D-ASC): The 5 Dimensions of Altered States of Consciousness (5D-ASC) Scale is a questionnaire containing visual analog scales for 94 items (Studerus et al., 2010). The instrument contains five scales assessing mood, anxiety, derealization, depersonalization, changes in perception, auditory alterations, and reduced vigilance. The scale is well-validated (Studerus et al., 2010) and used internationally to evaluate effects of many other psychoactive substances. The overall psychedelic experience is reflected by the total […] score. Each item of the scale is scored on a 0-100 mm VAS. The attribution of the individual items to the subscales of the 5D-ASC is analyzed according to (Studerus et al., 2010). The 5D-ASC scale is administered once at the end of the session and subjects are instructed to retrospectively rate peak alterations that have been experienced during the study session. Adiective Mood Rating Scale (AMRS): The Adjective Mood Rating Scale (AMRS or EWL60S) is a 60-item Likert scale that allows repeated assessment of mood in 6 dimensions: Activation, inactivation, well-being, anxiety/depressed mood, extra- and introversion, and emotional excitability. The German EWL60S version is used. The AMRS consists of subscales measuring “activation,” “positive mood,” “extraversion,” “introversion,” “inactivation,” and “emotional excitability. The scale has previously been used to evaluate effects of many other psychoactive substances. Emax and AUEC scores will be defined for each subscale and compared between treatments using analysis of variance. The AMRS is administered repeatedly throughout the study session and once 3 days after each session. […]

[3] = 75 mg; earlier study; cited from earlier work
rhesus monkeys = details: cited from earlier work
animals = details: various animal studies; cited from earlier work
healthy subjects [4] = assay: Effects on mood on the Adjective Mood Rating Scale (AMRS); type: in vivo, human; details: 125 mg
Description: as §1
(§2) Psychometric assessments: Visual Analog Scale (VAS): VASs is repeatedly used to assess subjective alterations in consciousness over time. Single scales are presented as 100 mm horizontal lines marked with “not at all” on the left and “extremely” on the right. The following VAS items are used: “any drug effect”, “good drug effect”, “bad drug effect”, “stimulated”, “liking”, “happy”, “content”, “talkative”, “open”, “trust”, “feeling close to others”, “anxiety”, “alteration of vision”, “alterations of hearing”, “sounds seem to influence what I see”, “alteration of sense of time”, “the boundaries between myself and my surroundings seem to blur”, “want to be with other people”, and “want to be alone”. Scales are administered before and repeatedly after substance administration and take approximately 2 minutes to fill out. The maximal ratings (Emax, 0-100) and areas under the effect-time curve (AUEC) are defined for each VAS and Emax and AUEC values compared between treatments using analysis of variance. 5-Dimensions of Altered States of Consciousness (5D-ASC): The 5 Dimensions of Altered States of Consciousness (5D-ASC) Scale is a questionnaire containing visual analog scales for 94 items (Studerus et al., 2010). The instrument contains five scales assessing mood, anxiety, derealization, depersonalization, changes in perception, auditory alterations, and reduced vigilance. The scale is well-validated (Studerus et al., 2010) and used internationally to evaluate effects of many other psychoactive substances. The overall psychedelic experience is reflected by the total […] score. Each item of the scale is scored on a 0-100 mm VAS. The attribution of the individual items to the subscales of the 5D-ASC is analyzed according to (Studerus et al., 2010). The 5D-ASC scale is administered once at the end of the session and subjects are instructed to retrospectively rate peak alterations that have been experienced during the study session. Adiective Mood Rating Scale (AMRS): The Adjective Mood Rating Scale (AMRS or EWL60S) is a 60-item Likert scale that allows repeated assessment of mood in 6 dimensions: Activation, inactivation, well-being, anxiety/depressed mood, extra- and introversion, and emotional excitability. The German EWL60S version is used. The AMRS consists of subscales measuring “activation,” “positive mood,” “extraversion,” “introversion,” “inactivation,” and “emotional excitability. The scale has previously been used to evaluate effects of many other psychoactive substances. Emax and AUEC scores will be defined for each subscale and compared between treatments using analysis of variance. The AMRS is administered repeatedly throughout the study session and once 3 days after each session. States of Consciousness Questionnaire (SCQ): In the SCQ, 100-items are rated on a six-point scale. Forty-three items embedded into this questionnaire comprise the Mystical Experience Questionnaire (MEQ) (MacLean et al., 2011) which is sensitive to the effects of psychedelic substances such as LSD. […]

healthy subjects [5] = assay: Autonomic effects (blood pressure, heart rate, body temperature); type: in vivo, human; details: 125 mg
Description: as §1
Autonomic measures: Blood pressure, heart rate, and body temperature are recorded at baseline and repeatedly throughout the session. Blood pressure (systolic and diastolic) and heart rate are measured with an automatic oscillometric device. Body temperature is measured with an ear thermometer. Emax is determined for each of the measures and for each study session. These Emax values are then compared between drug conditions using analysis of variance.

mice [6] = details: cited from earlier work
healthy subjects [7] = assay: Connectedness subscale of the PES questionnaire; type: in vivo, human; details: 125 mg
mice [8] = details: compared with R-MDMA; cited from earlier work
healthy subjects [9] = assay: Alteration of mind and mystical-type effects on 5D-ASC and MEQ questionnaires; type: in vivo, human; details: 125 mg
Description: as §1, §2

[10] = human; after administration of racemic MDMA; compared to R-MDA; cited from earlier work

| SMILES | acute subjective effects and adverse effects (healthy subjects [1]) | VAS “talkative,” “open,” “trust,” and “I feel close to others” (healthy subjects [2]) | body temperature [3] | reinforcing properties (rhesus monkeys) | social interaction (animals) | effects on the AMRS (healthy subjects [4]) | body temperature (healthy subjects [5]) | heart rate (healthy subjects [5]; versus placebo) | lethal doses (mice [6]) | ratings of connectedness, difference between conditions (healthy subjects [7]) | onset of interoceptive effects (mice [8]) | acute mystical-type experiences on the 5D-ASC scale (healthy subjects [9]; 24 subjects) | psychedelic effects on the 5D-ASC and the MEQ questionnaires (healthy subjects [9]; compared with placebo (and 125 mg R-MDMA)) | plasma levels of the active metabolite [10] | time of peak plasma level of the active metabolite [10] |
| --- | --- | --- | --- | --- | --- | --- | --- | --- | --- | --- | --- | --- | --- | --- | --- |
| CNC(C)Cc1ccc2c(c1)OCO2 (racemic) [(±)-MDMA, ±3,4-methylenedioxymethamphetamine, reference compound] | overall comparable | higher values | did not significantly increase body temperature | moderate reinforcing properties | Increased social interaction | comparable effects | increased similarly; also recorded: increased body temperature only moderately | increase heart rate comparably and more than with placebo | similar | no difference | faster | comparable effects with no significant differences | comparable and overall greater psychedelic effects | – | – |
| C[C@H](N)Cc1ccc2c(c1)OCO2 [S-MDA] | – | – | – | – | – | – | – | – | – | – | – | – | – | higher | peaked earlier |
